Results on eleven compounds are retold here after PubChem BioAssay (NCI).

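Briefly, cells in 96-well plates were exposed to five compound concentrations for 48 h, and endpoints were estimated by linear interpolation. GI50 = concentration required for 50% inhibition of growth. The concentration for full growth arrest is given as TGI.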

Test systems include CCRF-CEM leukemia; COLO 205 colon; HT29 colon; MALME-3M melanoma; NCI-H226 lung; NCI-H522 lung; SF-539 CNS; SK-MEL-5 melanoma; HCT-116 colon.
Common to all, as to assay: growth of human tumour cells (NCI), 48 h

For `O=c1sc(-c2nc3ccccc3[nH]2)c(/N=C/c2ccccc2)n1-c1ccccc1`, the TGI in the assay on CCRF-CEM leukemia was greater than 100 µM; in the assay with COLO 205 colon, greater than 100 µM; in the assay on HT29 colon it was greater than 100 µM; in the assay with MALME-3M melanoma, greater than 100 µM; with NCI-H226 lung, 38.3 µM; with NCI-H522 lung, greater than 100 µM. The TGI with SF-539 CNS and in the assay on SK-MEL-5 melanoma was greater than 100 µM in each case.
For the compound `c1cnc2nc3n(c2c1)CSC3`, the TGI in the assay with CCRF-CEM leukemia, with COLO 205 colon, in the assay on HT29 colon, in the assay with MALME-3M melanoma, with NCI-H226 lung and in the assay with NCI-H522 lung was greater than 100 µM throughout. Further, the TGI in the assay on SF-539 CNS and in the assay with SK-MEL-5 melanoma was greater than 100 µM throughout.
In the case of `COc1cc2oc(-c3ccc(O)cc3)cc(=O)c2c(OC)c1O`, the TGI with CCRF-CEM leukemia, in the assay on COLO 205 colon, in the assay with HCT-116 colon, in the assay on HT29 colon, with MALME-3M melanoma and with NCI-H226 lung was greater than 100 µM throughout. Moreover, the TGI in the assay on NCI-H522 lung, in the assay with SF-539 CNS and in the assay with SK-MEL-5 melanoma was greater than 100 µM throughout.
Take `C=C(C)[C@@H]1CC[C@]2(C(=O)N3CCN(C)CC3)CC[C@]3(C)[C@H](CC[C@@H]4[C@@]5(C)CC[C@H](O)C(C)(C)[C@@H]5CC[C@]43C)[C@@H]12`: the GI50 was 1.89 µM with COLO 205 colon; 1.47 µM in the assay with HCT-116 colon; 1.41 µM with HT29 colon; 1.92 µM in the assay on MALME-3M melanoma; 2.07 µM in the assay with NCI-H226 lung; 1.92 µM with NCI-H522 lung. For the same compound, the GI50 in the assay with SF-539 CNS is 1.69 µM; in the assay with SK-MEL-5 melanoma, 1.72 µM. In addition, the TGI stood at 4.26 µM in the assay on COLO 205 colon; 3.51 µM in the assay with HCT-116 colon; 3.09 µM in the assay on HT29 colon; 3.83 µM with MALME-3M melanoma; 5 µM with NCI-H226 lung; 3.8 µM in the assay with NCI-H522 lung. Moreover, the figures for the TGI in the assay with SF-539 CNS and in the assay on SK-MEL-5 melanoma were 3.12 µM and 3.15 µM, respectively.
For `CN1c2ccccc2S(=O)(=O)n2c(COc3ccccc3)nnc21`, the TGI with CCRF-CEM leukemia, in the assay with COLO 205 colon, in the assay on HCT-116 colon, with HT29 colon, in the assay on NCI-H226 lung and with NCI-H522 lung was greater than 100 µM in each case. Moreover, the TGI in the assay with SF-539 CNS and with SK-MEL-5 melanoma was greater than 100 µM each time.
Regarding `CN(CC1NCCCC1O)C12CC3CC(CC(C3)C1)C2` (configuration not stated), the TGI in the assay with CCRF-CEM leukemia, in the assay with COLO 205 colon, in the assay on HT29 colon, in the assay on MALME-3M melanoma, in the assay on NCI-H226 lung and with NCI-H522 lung was greater than 100 µM each time. This compound gave a TGI in the assay on SF-539 CNS greater than 100 µM.
On to `C=CCCCC(O)c1ccc(C(O)c2cnc3ccccc3c2)o1` (configuration not stated), for which the GI50 with CCRF-CEM leukemia was 29.4 µM; in the assay with COLO 205 colon, 33.7 µM; in the assay on HT29 colon, 46.9 µM; in the assay with NCI-H226 lung it was 30.8 µM; with NCI-H522 lung it was 28.4 µM; in the assay on SF-539 CNS it was 27.9 µM. Besides, the GI50 in the assay on SK-MEL-5 melanoma was 9.52 µM. Further, the TGI in the assay with CCRF-CEM leukemia is 86.7 µM; with COLO 205 colon, greater than 100 µM; with HT29 colon, greater than 100 µM; in the assay on NCI-H226 lung, 71.5 µM; in the assay with NCI-H522 lung it was greater than 100 µM; in the assay on SF-539 CNS, 82.5 µM. This compound also showed a TGI in the assay with SK-MEL-5 melanoma of 22.4 µM.
As for `C=C1CCC2(C(C)=O)COC1(C)O2` (configuration not stated), the TGI in the assay with CCRF-CEM leukemia, in the assay on COLO 205 colon, in the assay with HCT-116 colon, with HT29 colon, in the assay with MALME-3M melanoma and in the assay with NCI-H226 lung was greater than 100 µM in each case. Moreover, the results for the TGI with NCI-H522 lung, in the assay with SF-539 CNS and in the assay on SK-MEL-5 melanoma were greater than 10 µM, greater than 100 µM and greater than 100 µM, respectively.
As to `COc1cc(OC)c(/C=C/C(=O)c2c(O)cc(OC)c(C3CCN(C)CC3)c2OC)c(OC)c1`, the GI50 with CCRF-CEM leukemia was 1.18 µM; with COLO 205 colon, 1.8 µM; in the assay on HCT-116 colon, 0.414 µM; in the assay on HT29 colon, 0.421 µM; in the assay on NCI-H522 lung it was 1.86 µM; with SF-539 CNS it was 1.69 µM. Moreover, the GI50 in the assay on SK-MEL-5 melanoma is 1.64 µM. The TGI stood at 2.78 µM in the assay with CCRF-CEM leukemia; 3.23 µM in the assay on COLO 205 colon; 1.65 µM with HCT-116 colon; 1.5 µM in the assay with HT29 colon; 3.31 µM with NCI-H522 lung; 3.12 µM with SF-539 CNS. Further, in the assay with SK-MEL-5 melanoma, the TGI is 3.07 µM.
Take `Cn1cc(-c2ccc3nnc(C(F)(F)c4ccc5ncccc5c4)n3n2)cn1`: the GI50 was 98.7 µM in the assay with CCRF-CEM leukemia; 59.6 µM in the assay on COLO 205 colon; 61.9 µM with HCT-116 colon; 63.6 µM with HT29 colon; 64.1 µM in the assay on MALME-3M melanoma; 58.5 µM in the assay on NCI-H226 lung. Besides, the GI50 with SF-539 CNS was 47.5 µM; in the assay on SK-MEL-5 melanoma, 43.2 µM. For the same compound, the TGI with CCRF-CEM leukemia, with COLO 205 colon, with HCT-116 colon, in the assay on HT29 colon, in the assay on MALME-3M melanoma and in the assay on NCI-H226 lung was greater than 100 µM each time. The TGI in the assay with SF-539 CNS and with SK-MEL-5 melanoma was greater than 100 µM each time.
For the compound `COc1ccc(Nc2ncccc2C(=O)NCc2cn(Cc3cccc(Oc4ccccc4)c3)nn2)c(OC)c1`, the GI50 with CCRF-CEM leukemia was 2.08 µM; in the assay on COLO 205 colon it was 2.11 µM; in the assay on HCT-116 colon, 1.66 µM; in the assay on HT29 colon it was 1.47 µM; in the assay with MALME-3M melanoma, 6.21 µM; in the assay on NCI-H226 lung, 2.72 µM. Moreover, the GI50 was 1.44 µM in the assay with NCI-H522 lung, 2.43 µM in the assay on SF-539 CNS and 0.635 µM in the assay with SK-MEL-5 melanoma. The TGI in the assay on CCRF-CEM leukemia was greater than 100 µM; in the assay on COLO 205 colon it was 5.7 µM; in the assay on HCT-116 colon, greater than 100 µM; in the assay with HT29 colon, 13.5 µM; in the assay with MALME-3M melanoma it was greater than 100 µM; in the assay on NCI-H226 lung, greater than 26.7 µM. In addition, the TGI with NCI-H522 lung is 6.46 µM; with SF-539 CNS, 19.2 µM; with SK-MEL-5 melanoma, 7.93 µM.
